Laboratory results published in patent US20190309017A1, “GLUTAMINASE INHIBITORS” (Glutaminax, LLC, priority 2018, published 2019).
Values joined by “and” are separate entries in the source; they are usually repeats but may differ in a detail not shown here. Equal values may be shown once. Residues, ends and D or L forms follow the SMILES beside them. *: point of attachment. NHOH = ON*

How the values were obtained:
[1] = tested on: IM-9 cells (Multiple Myeloma); test: Cell kill of IM-9 cells, CyQuant NF assay (DNA content); type: cell-based
Method: Compounds 6 and 9 were tested for their ability to kill IM-9 cells (Multiple Myeloma). Approximately 25,000 cells were plated in RPMI medium (4 mM glutamine). Compounds 6 and 9 were dissolved in PBS and pH adjusted to neutrality (200 mM stock). Compound 9 was added at 1 mM, 2 mM and 4 mM concentrations into separate wells. Compound 6 was added at 0.25 mM and 1 mM concentrations into separate wells. The cells were incubated for 48 and 96 hours in the presence of […], and 48 and 72 hours in the presence of compound 6. Cell number was determined with the CyQuant NF assay (measures DNA content) according to manufacturer's instruction (Invitrogen). For the sake of clarity, compounds 6 and 9 are reproduced below: […]

[2] = tested on: Panc1 cells (Pancreatic cancer); test: Cell kill of Panc1 cells, CyQuant NF assay (DNA content); type: cell-based
Method: Compounds 6 and 9 were tested with Panc1 cells (Pancreatic cancer) plated in DMEM medium (2 mM glutamine). Approximately 30,000 live cells were plated. Compounds were dissolved in PBS and pH adjusted to neutrality (200 mM stock). Compound 9 was added at 1 mM, 2 mM and 4 mM concentrations into separate wells. Compound 6 was added at 0.25 mM and 1 mM concentrations into separate wells. The cells were incubated for 48 and 96 hours in the presence of compound 9, and 48 and 72 hours in the presence of compound 6. Cell number was determined with the CyQuant NF assay (measures DNA content) according to manufacturer's instruction (Invitrogen).

[3] = 1 mM compound, Day 2, DMEM medium (2 mM glutamine)

NC(=O)CC[C@H](NC(=O)CC[C@H](N)C(=O)O)C(=O)NO [Compound 6, β-Glu-Gln (NHOH mimetic)]
Cells killed v. control ([1]; 0.25 mM compound, Day 3, RPMI medium (4 mM glutamine)): ~87%
Cells killed v. control ([1]; 1 mM compound, Day 2, RPMI medium (4 mM glutamine)): ~83%
Cells killed v. control ([1]; 1 mM compound, Day 3, RPMI medium (4 mM glutamine)): ~91%
Cells killed v. control ([2]; 0.25 mM compound, Day 2, DMEM medium (2 mM glutamine)): ~32%
Cells killed v. control ([2]; 0.25 mM compound, Day 3, DMEM medium (2 mM glutamine)): ~50%
Cells killed v. control [2, 3]: ~66%
Cells killed v. control ([2]; 1 mM compound, Day 3, DMEM medium (2 mM glutamine)): ~75%

NC(=O)CCC(NC(=O)C(N)CCC(=O)O)C(=O)NO (stereo not drawn) [Compound 9, α-Glu-Gln (NHOH mimetic)] (H-Glu-Gln-{NHOH}; configuration not given here)
Cells killed v. control ([1]; 1 mM compound, Day 4, RPMI medium (4 mM glutamine)): ~58% and 58%
Cells killed v. control ([1]; 2 mM compound, Day 2, RPMI medium (4 mM glutamine)): ~29%
Cells killed v. control ([1]; 2 mM compound, Day 4, RPMI medium (4 mM glutamine)): ~66%
Cells killed v. control ([1]; 4 mM compound, Day 2, RPMI medium (4 mM glutamine)): ~61%
Cells killed v. control ([1]; 4 mM compound, Day 4, RPMI medium (4 mM glutamine)): ~96%
Cells killed v. control [2, 3]: ~0%
Cells killed v. control ([2]; 2 mM compound, Day 2, DMEM medium (2 mM glutamine)): ~7%
Cells killed v. control ([2]; 2 mM compound, Day 4, DMEM medium (2 mM glutamine)): ~9%
Cells killed v. control ([2]; 4 mM compound, Day 2, DMEM medium (2 mM glutamine)): ~11%
Cells killed v. control ([2]; 4 mM compound, Day 4, DMEM medium (2 mM glutamine)): ~55%
